Results: ChEMBL document CHEMBL4831545, “Hormesis Effect of Berberine against Klebsiella pneumoniae Is Mediated by Up-Regulation of the Efflux Pump KmrA” (J Nat Prod, 2021)
Calls of active or inactive are those of the source. No cut-off for these calls is given here.

Tests used:
[1] = system: Klebsiella pneumoniae; assay: Hormesis activity against Klebsiella pneumonia assessed as promotion of bacterial growth at 3 to 50 ug/ml measured for 24 hrs in presence of 4 ug/ml tetracycline by OD600 based analysis; format: organism-based; conditions: in vivo, dose 3-50 µg/ml
[2] = system: Klebsiella pneumoniae; assay: Hormesis activity against Klebsiella pneumoniae assessed as increase in antibiotic MIC by measuring cefotaxime MIC at 3 ug/ml incubated for 12 hrs by OD600 based analysis (reference value: 0.39625 ug/ml); format: ADME, organism-based; conditions: in vivo, dose 3 µg/ml
[3] = system: Enterobacter cloacae; assay: Hormesis activity against overnight compound-treated Enterobacter cloacae assessed as increase in antibiotic MIC by measuring chloramphenicol MIC at 3 ug/ml incubated for 12 hrs by OD600 based analysis (reference value: 3.125 ug/ml); format: ADME, organism-based; conditions: in vivo, dose 3 µg/ml
[4] = system: Klebsiella pneumoniae; assay: Hormesis activity against Klebsiella pneumoniae assessed as increase in antibiotic MIC by measuring ampicillin MIC at 3 ug/ml incubated for 12 hrs by OD600 based analysis (reference value: 12.5 ug/ml); format: ADME, organism-based; conditions: in vivo, dose 3 µg/ml
[5] = system: Klebsiella pneumoniae; assay: Hormesis activity against Klebsiella pneumoniae assessed as increase in antibiotic MIC by measuring ciprofloxacin MIC at 3 ug/ml incubated for 12 hrs by OD600 based analysis (reference value: 0.0390625 ug/ml); format: ADME, organism-based; conditions: in vivo, dose 3 µg/ml
[6] = system: Acinetobacter baumannii; assay: Hormesis activity against overnight-compound treated Acinetobacter baumannii assessed as increase in antibiotic MIC by measuring ampicillin MIC at 3 ug/ml incubated for 12 hrs by OD600 based analysis (reference value: 100 ug/ml); format: ADME, organism-based; conditions: in vivo, dose 3 µg/ml
[7] = system: Klebsiella pneumoniae; assay: Hormesis activity against Klebsiella pneumoniae assessed as increase in antibiotic MIC by measuring rifampicin MIC at 3 ug/ml incubated for 12 hrs by OD600 based analysis (reference value: 25 ug/ml); format: ADME, organism-based; conditions: in vivo, dose 3 µg/ml
[8] = system: Klebsiella pneumoniae; assay: Hormesis activity against Klebsiella pneumoniae deficient in KmrA gene expression assessed as increase in antibiotic MIC by measuring rifampicin MIC at 3 ug/ml incubated for 12 hrs by OD600 based analysis (reference value: 25 ug/ml); format: ADME, organism-based; conditions: in vivo, dose 3 µg/ml
[9] = system: Klebsiella pneumoniae; assay: Hormesis activity against Klebsiella pneumonia assessed as inhibition of bacterial growth by measuring shortened logarithmic growth phase at 25 to 50 ug/ml measured after 24 hrs by OD600 based analysis; format: functional, organism-based; conditions: dose 25-50 µg/ml
[10] = system: Klebsiella pneumoniae; assay: Hormesis activity against Klebsiella pneumoniae deficient in KmrA gene expression assessed as increase in antibiotic MIC by measuring azithromycin MIC at 3 ug/ml incubated for 12 hrs by OD600 based analysis (reference value: 0.78125 ug/ml); format: ADME, organism-based; conditions: in vivo, dose 3 µg/ml
[11] = system: Enterobacter cloacae; assay: Hormesis activity against Enterobacter cloacae assessed as promotion of bacterial growth by measuring prolonged logarithmic growth phase at 3 to 6 ug/ml measured for 24 hrs by OD600 based analysis; format: organism-based; conditions: in vivo, dose 3-6 µg/ml
[12] = system: Klebsiella pneumoniae; assay: Hormesis activity against Klebsiella pneumoniae deficient in KmrA gene expression assessed as increase in antibiotic MIC by measuring hygromycinMIC at 3 ug/ml incubated for 12 hrs by OD600 based analysis (reference value: 12.5 ug/ml); format: ADME, organism-based; conditions: in vivo, dose 3 µg/ml
[13] = system: Klebsiella pneumoniae; assay: Hormesis activity against overnight compound-treated Klebsiella pneumoniae deficient in KmrA gene expression assessed as increase in antibiotic MIC by measuring tetracycline MIC at 3 ug/ml incubated for 12 hrs by OD600 based analysis (reference value: 6 ug/ml); format: ADME, organism-based; conditions: in vivo, dose 3 µg/ml
[14] = system: Klebsiella pneumoniae; assay: Hormesis activity against Klebsiella pneumoniae deficient in KmrA gene expression assessed as increase in antibiotic MIC by measuring tetracycline MIC at 3 ug/ml incubated for 12 hrs by OD600 based analysis (reference value: 6 ug/ml); format: ADME, organism-based; conditions: in vivo, dose 3 µg/ml
[15] = system: Klebsiella pneumoniae; assay: Hormesis activity against Klebsiella pneumoniae deficient in KmrA gene expression assessed as increase in antibiotic MIC by measuring meropenem MIC at 3 ug/ml incubated for 12 hrs by OD600 based analysis (reference value: 0.39625 ug/ml); format: ADME, organism-based; conditions: in vivo, dose 3 µg/ml
[16] = system: Acinetobacter baumannii; assay: Hormesis activity against Acinetobacter baumannii assessed as promotion of bacterial growth by measuring prolonged logarithmic growth phase at 3 to 50 ug/ml measured for 24 hrs by OD600 based analysis; format: organism-based; conditions: in vivo, dose 3-50 µg/ml
[17] = system: Enterobacter cloacae; assay: Hormesis activity against overnight compound-treated Enterobacter cloacae assessed as increase in antibiotic MIC by measuring ampicillin MIC at 3 ug/ml incubated for 12 hrs by OD600 based analysis (reference value: 25 ug/ml); format: ADME, organism-based; conditions: in vivo, dose 3 µg/ml
[18] = system: Klebsiella pneumoniae; assay: Hormesis activity against overnight compound-treated Klebsiella pneumoniae deficient in KmrA gene expression assessed as increase in antibiotic MIC by measuring streptomycin MIC at 3 ug/ml incubated for 12 hrs by OD600 based analysis (reference value: 0.78125 ug/ml); format: ADME, organism-based; conditions: in vivo, dose 3 µg/ml
[19] = system: Klebsiella pneumoniae; assay: Hormesis activity against Klebsiella pneumoniae deficient in KmrA gene expression assessed as increase in antibiotic MIC by measuring ciprofloxacin MIC at 3 ug/ml incubated for 12 hrs by OD600 based analysis (reference value: 0.0390625 ug/ml); format: ADME, organism-based; conditions: in vivo, dose 3 µg/ml
[20] = system: Acinetobacter baumannii; assay: Hormesis activity against Acinetobacter baumannii assessed as increase in antibiotic MIC by measuring meropenem MIC at 3 ug/ml incubated for 12 hrs by OD600 based analysis (reference value: 0.625 ug/ml); format: ADME, organism-based; conditions: in vivo, dose 3 µg/ml
[21] = system: Klebsiella pneumoniae; assay: Hormesis activity against Klebsiella pneumoniae assessed as increase in antibiotic MIC by measuring hygromycinMIC at 3 ug/ml incubated for 12 hrs by OD600 based analysis (reference value: 12.5 ug/ml); format: ADME, organism-based; conditions: in vivo, dose 3 µg/ml
[22] = system: Enterobacter cloacae; assay: Hormesis activity against overnight compound-treated Enterobacter cloacae assessed as increase in antibiotic MIC by measuring hygromycinMIC at 3 ug/ml incubated for 12 hrs by OD600 based analysis (reference value: 25 ug/ml); format: ADME, organism-based; conditions: in vivo, dose 3 µg/ml
[23] = system: Acinetobacter baumannii; assay: Hormesis activity against overnight-compound treated Acinetobacter baumannii assessed as increase in antibiotic MIC by measuring cefotaxime MIC at 3 ug/ml incubated for 12 hrs by OD600 based analysis (reference value: 12.5 ug/ml); format: ADME, organism-based; conditions: in vivo, dose 3 µg/ml
[24] = system: Enterobacter cloacae; assay: Hormesis activity against Enterobacter cloacae assessed as increase in antibiotic MIC by measuring tetracycline MIC at 3 ug/ml incubated for 12 hrs by OD600 based analysis (reference value: 8 ug/ml); format: ADME, organism-based; conditions: in vivo, dose 3 µg/ml
[25] = system: Enterobacter cloacae; assay: Hormesis activity against overnight compound-treated Enterobacter cloacae assessed as increase in antibiotic MIC by measuring streptomycin MIC at 3 ug/ml incubated for 12 hrs by OD600 based analysis (reference value: 12.5 ug/ml); format: ADME, organism-based; conditions: in vivo, dose 3 µg/ml
[26] = system: Enterobacter cloacae; assay: Hormesis activity against Enterobacter cloacae assessed as increase in antibiotic MIC by measuring ciprofloxacin MIC at 3 ug/ml incubated for 12 hrs by OD600 based analysis (reference value: 0.0390625 ug/ml); format: ADME, organism-based; conditions: in vivo, dose 3 µg/ml
[27] = system: Acinetobacter baumannii; assay: Hormesis activity against Acinetobacter baumannii assessed as increase in antibiotic MIC by measuring atreonamMIC at 3 ug/ml incubated for 12 hrs by OD600 based analysis (reference value: 6.25 ug/ml); format: ADME, organism-based; conditions: in vivo, dose 3 µg/ml
[28] = system: Klebsiella pneumoniae; assay: Hormesis activity against overnight compound-treated Klebsiella pneumoniae deficient in KmrA gene expression assessed as increase in antibiotic MIC by measuring atreonamMIC at 3 ug/ml incubated for 12 hrs by OD600 based analysis (reference value: 1.5625 ug/ml); format: ADME, organism-based; conditions: in vivo, dose 3 µg/ml
[29] = system: Klebsiella pneumoniae; assay: Hormesis activity against overnight compound-treated Klebsiella pneumoniae assessed as increase in antibiotic MIC by measuring azithromycin MIC at 3 ug/ml incubated for 12 hrs by OD600 based analysis (reference value: 1.5625 ug/ml); format: ADME, organism-based; conditions: in vivo, dose 3 µg/ml

COc1ccc2cc3[n+](cc2c1OC)CCc1cc2c(cc1-3)OCO2 [BERBERINE]
Activity [1]: Toxic
MIC [2]: 0.3962 µg/mL
MIC [3]: 3.125 µg/mL
MIC [4]: 12.5 µg/mL
MIC [5]: 0.07812 µg/mL
MIC [6]: 200 µg/mL
MIC [7]: 25 µg/mL
MIC [8]: 25 µg/mL
Activity [9]: Active
MIC [10]: 0.7812 µg/mL
Activity [11]: Toxic
MIC [12]: 12.5 µg/mL
MIC [13]: 6 µg/mL
MIC [14]: 6 µg/mL
MIC [15]: 0.3962 µg/mL
Activity [16]: Toxic
MIC [17]: 50 µg/mL
MIC [18]: 1.5625 µg/mL
MIC [19]: 0.03906 µg/mL
MIC [20]: 0.625 µg/mL
MIC [21]: 12.5 µg/mL
MIC [22]: 25 µg/mL
MIC [23]: 12.5 µg/mL
MIC [24]: 8 µg/mL
MIC [25]: 25 µg/mL
MIC [26]: 0.07812 µg/mL
MIC [27]: 6.25 µg/mL
MIC [28]: 1.5625 µg/mL
MIC [29]: 3.125 µg/mL
